Experimental data published in US20240041042A1, “1-(PYRIDYL)-5-AZINYLPYRAZOLE DERIVATIVES, AND THEIR USE FOR CONTROL OF UNDESIRED PLANT GROWTH” (Bayer Aktiengesellschaft, priority 2020, published 2024).
Like-named read-outs stand apart in the source and are kept apart here.

How the values were obtained:
Format in all cases: in vivo
[1] = tested on: Echinochloa crus-galli (ECHCG); assay: Post-emergence herbicidal action against ECHCG; conditions: dosage 320 g/ha
Procedure, shortened: (§1)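 Post-emergence greenhouse spray, one-leaf stage, 600 l/ha water plus 0.5% additive; WP or EC formulations; application rates 320 g/ha or lower. Visual % damage vs untreated controls at ~3 weeks.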

[2] = tested on: Alopecurus myosuroides (ALOMY); assay: Post-emergence herbicidal action against ALOMY; conditions: 320 g/ha, visual rating about 3 weeks after treatment vs untreated controls (100% = plants have died, 0% = like control plants)
Procedure, shortened: as §1

Viola tricolor (VIOTR) [3] = assay: Post-emergence herbicidal action against VIOTR
Procedure, shortened: as §1

[4] = tested on: Abutilon theophrasti (ABUTH); assay: Post-emergence herbicidal action against ABUTH; conditions: 320 g/ha, visual rating about 3 weeks after treatment vs untreated controls (100% = plants have died, 0% = like control plants)
Procedure, shortened: as §1

[5] = tested on: Amaranthus retroflexus (AMARE); assay: Post-emergence herbicidal action against AMARE; conditions: 320 g/ha, visual rating about 3 weeks after treatment
Procedure, shortened: as §1

[6] = tested on: Verconica persica (VERPE); assay: Post-emergence herbicidal action against VERPE
Procedure, shortened: as §1

Lolium rigidum (LOLRI) = assay: Post-emergence herbicidal action against LOLRI; conditions: dosage 320 g/ha
Procedure, shortened: as §1

[7] = tested on: Polygonum convolvulus (POLCO); assay: Post-emergence herbicidal action against POLCO
Procedure, shortened: as §1

Zea mays (ZEAMX) = conditions: for Post-emergence action against ZEAMX in %: crop plant compatibility, effect vs untreated controls
Procedure, shortened: (§2)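 Visual rating (% effect vs. untreated plants; 100% = plant death) made about 3 weeks after treatment. Plants had been sprayed at one-leaf stage, 2–3 weeks post-sowing, with aqueous WP/EC preparations containing 0.5% additive, 600 l/ha water volume; a, b, c mark dose levels.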

[8] = tested on: Triticum aestivum (TRZAS); conditions: crop plant compatibility, effect vs untreated controls
Procedure, shortened: as §2

Oryza sativa (ORYSA) = conditions: crop plant compatibility
Procedure, shortened: as §2

[9] = tested on: Pharbitis purpurea (PHBPU); assay: Post-emergence herbicidal action against PHBPU
Procedure, shortened: as §1

[10] = tested on: Matricaria inodora (MATIN); assay: Post-emergence herbicidal action against MATIN; conditions: dosage 320 g/ha
Procedure, shortened: as §1

[11] = tested on: Polygonum convolvulus (POLCO); assay: Pre-emergence herbicidal action against POLCO; conditions: dosage 320 g/ha
Procedure, shortened: (§3)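 Dosages of 320 g/ha or less; pre-emergence; WP or EC in aqueous spray, 0.5% additive, 600 l/ha; greenhouse; visual % effect after ~3 wk relative to control pots.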

[12] = tested on: Amaranthus retroflexus (AMARE); assay: Pre-emergence herbicidal action against AMARE; conditions: 320 g/ha, visual scoring after about 3 weeks vs untreated controls
Procedure, shortened: as §3

Viola tricolor (VIOTR) [13] = assay: Pre-emergence herbicidal action against VIOTR
Procedure, shortened: as §3

[14] = tested on: Verconica persica (VERPE); assay: Pre-emergence herbicidal action against VERPE
Procedure, shortened: as §3

Setaria viridis (SETVI) = assay: Post-emergence herbicidal action against SETVI; conditions: dosage 320 g/ha
Procedure, shortened: as §1

[15] = tested on: Pharbitis purpurea (PHBPU); assay: Pre-emergence herbicidal action against PHBPU; conditions: dosage 320 g/ha
Procedure, shortened: as §3

[16] = tested on: Echinochloa crus-galli (ECHCG); assay: Pre-emergence herbicidal action against ECHCG; conditions: dosage 320 g/ha
Procedure, shortened: as §3

[17] = 80 g/ha, effect in comparison to untreated controls

SMILES | Post-emergence action against ECHCG in % [1] | Post-emergence action against VIOTR in % (Viola tricolor (VIOTR) [3]; 80 g/ha) | Post-emergence action against VIOTR in % (Viola tricolor (VIOTR) [3]; 320 g/ha) | Post-emergence action against ABUTH in % [4] | Post-emergence action against AMARE in % [5] | Post-emergence action against VERPE in % ([6]; 320 g/ha, VERPE) | Post-emergence action against POLCO in % ([7]; dosage 320 g/ha) | Post-emergence action against TRZAS in % ([8]; 20 g/ha) | Post-emergence action against TRZAS in % ([8]; 80 g/ha) | Post-emergence action against ORYSA in % (Oryza sativa (ORYSA); [17]) | Post-emergence action against PHBPU in % ([9]; dosage 320 g/ha) | Post-emergence action against VERPE in % ([6]; dosage 80 g/ha) | also measured
CCOC(=O)COc1nn(-c2ncccc2F)c(-c2ccnc(F)c2)c1I [Example I-137] | 80% | 80% | 80% | 80% | 80% | 80% | 80% | 20% | 20% | 10% |  |  | Post-emergence action against ALOMY in % [2]: 80%; Post-emergence action against LOLRI in % (Lolium rigidum (LOLRI)): 90%; Post-emergence action against POLCO in % ([7]; dosage 80 g/ha): 80%; Post-emergence action against ZEAMX in % (crop plant compatibility) (Zea mays (ZEAMX); 20 g/ha, ZEAMX, effect in comparison to untreated controls): 0%; Post-emergence action against ZEAMX in % (Zea mays (ZEAMX); 80 g/ha): 0%; Post-emergence action against ZEAMX in % (Zea mays (ZEAMX); 320 g/ha): 20%; Post-emergence action against ORYSA in % (Oryza sativa (ORYSA); 20 g/ha, effect vs untreated controls): 0%; Post-emergence action against ORYSA in % (Oryza sativa (ORYSA); 320 g/ha, effect in comparison to untreated controls): 20%
C=Cc1c(OCC(=O)OCC)nn(-c2ccccn2)c1-c1ccc(F)nc1 [Example I-273] | 90% | 90% | 90% | 80% | 80% | 90% | 80% | 0% |  |  | 90% | 80% | Post-emergence action against PHBPU in % ([9]; dosage 80 g/ha): 80%; Post-emergence action against MATIN in % [10]: 80%
O=C(COc1nn(-c2ncccc2C(F)(F)F)c(-c2cncc(F)c2)c1Br)OCC1CCOC1 (racemic) [Example I-162] | 80% |  |  |  | 80% | 90% |  |  | 10% | 0% | 90% | 80% | Pre-emergence action against POLCO in % [11]: 100%; Pre-emergence action against AMARE in % [12]: 90%; Pre-emergence action against VIOTR in % (Viola tricolor (VIOTR) [13]; 320 g/ha, Viola tricolor): 100%; Pre-emergence action against VIOTR in % (Viola tricolor (VIOTR) [13]; dosage 80 g/ha): 80%; Pre-emergence action against VERPE in % ([14]; dosage 80 g/ha): 90%; Pre-emergence action against VERPE in % ([14]; dosage 320 g/ha): 90%; Post-emergence action against SETVI in % (Setaria viridis (SETVI)): 80%; Pre-emergence action against PHBPU in % [15]: 90%; Pre-emergence action against ECHCG in % [16]: 80%
